Experimental data published in the kinase profiling compilation of Christmann-Franck et al. (2016).

Assays:
Experiment in all cases: KINOMEscan competition binding
Conditions in all cases: compound 10.0 µM
AURKA (human) = AURKA (human) (UniProt O14965)
CDK13 (human) = CDK13 (human) (UniProt Q14004)
CDK17 (human) = CDK17 (human) (UniProt Q00537)
CDK19 (human) = CDK19 (human) (UniProt Q9BWU1)
CDK5 (human) = CDK5 (human) (UniProt Q00535)
CDKL3 (human) = CDKL3 (human) (UniProt Q8IVW4)
CHEK1 (human) = CHEK1 (human) (UniProt O14757)
CLK4 (human) = CLK4 (human) (UniProt Q9HAZ1)
CRK2 (P.falciparum) = CRK2 (P.falciparum) (UniProt P61075)
CaMK1 (human) = CaMK1 (human) (UniProt Q14012)
EPHA1 (human) = EPHA1 (human) (UniProt P21709)
EPHA7 (human) = EPHA7 (human) (UniProt Q15375)
FLT1 (human) = FLT1 (human) (UniProt P17948)
FLT4 (human) = FLT4 (human) (UniProt P35916)
Sequence of FLT4 (human) (P35916 whole entry, looked up): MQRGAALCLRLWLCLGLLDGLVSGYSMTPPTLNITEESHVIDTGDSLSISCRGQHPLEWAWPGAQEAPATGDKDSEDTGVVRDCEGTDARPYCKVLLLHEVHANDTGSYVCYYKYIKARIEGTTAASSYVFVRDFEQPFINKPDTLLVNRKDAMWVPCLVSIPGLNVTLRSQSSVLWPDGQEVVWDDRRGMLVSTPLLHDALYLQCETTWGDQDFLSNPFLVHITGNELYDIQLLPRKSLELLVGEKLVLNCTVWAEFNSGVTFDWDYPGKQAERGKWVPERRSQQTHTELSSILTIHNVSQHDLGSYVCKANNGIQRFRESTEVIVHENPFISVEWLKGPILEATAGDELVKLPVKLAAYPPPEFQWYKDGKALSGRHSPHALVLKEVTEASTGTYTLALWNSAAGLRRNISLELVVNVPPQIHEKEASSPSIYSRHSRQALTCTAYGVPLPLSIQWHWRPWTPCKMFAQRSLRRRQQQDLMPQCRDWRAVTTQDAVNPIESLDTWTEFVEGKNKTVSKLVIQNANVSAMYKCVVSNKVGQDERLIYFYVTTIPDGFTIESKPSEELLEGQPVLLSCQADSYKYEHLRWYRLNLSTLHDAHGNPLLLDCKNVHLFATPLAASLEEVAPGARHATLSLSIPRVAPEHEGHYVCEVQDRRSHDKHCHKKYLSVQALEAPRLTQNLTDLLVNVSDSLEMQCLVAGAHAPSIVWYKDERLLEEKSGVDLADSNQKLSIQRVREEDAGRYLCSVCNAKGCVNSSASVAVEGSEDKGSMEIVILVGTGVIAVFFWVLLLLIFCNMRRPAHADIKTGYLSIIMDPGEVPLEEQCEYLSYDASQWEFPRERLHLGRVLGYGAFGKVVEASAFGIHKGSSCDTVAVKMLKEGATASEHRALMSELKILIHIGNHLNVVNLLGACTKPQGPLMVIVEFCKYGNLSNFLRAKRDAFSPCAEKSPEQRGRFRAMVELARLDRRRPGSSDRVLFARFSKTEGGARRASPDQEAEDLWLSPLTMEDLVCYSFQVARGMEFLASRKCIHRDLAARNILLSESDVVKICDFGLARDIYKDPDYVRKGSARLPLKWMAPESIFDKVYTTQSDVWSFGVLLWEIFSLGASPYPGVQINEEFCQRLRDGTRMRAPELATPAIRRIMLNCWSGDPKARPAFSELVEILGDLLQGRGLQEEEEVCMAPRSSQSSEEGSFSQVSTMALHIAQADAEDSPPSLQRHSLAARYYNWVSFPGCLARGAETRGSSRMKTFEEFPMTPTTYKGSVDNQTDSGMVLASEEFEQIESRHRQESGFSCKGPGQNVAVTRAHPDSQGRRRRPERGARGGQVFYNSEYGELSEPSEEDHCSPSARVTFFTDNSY

GRK4 (human) = GRK4 (human) (UniProt P32298)
HCK (human) = HCK (human) (UniProt P08631)
HIPK1 (human) = HIPK1 (human) (UniProt Q86Z02)
HIPK2 (human) = HIPK2 (human) (UniProt Q9H2X6)
[1] = test system: KIT (human), P10721 [A829P]
Sequence of KIT (human), P10721 [A829P] (P10721 whole entry A829P, looked up): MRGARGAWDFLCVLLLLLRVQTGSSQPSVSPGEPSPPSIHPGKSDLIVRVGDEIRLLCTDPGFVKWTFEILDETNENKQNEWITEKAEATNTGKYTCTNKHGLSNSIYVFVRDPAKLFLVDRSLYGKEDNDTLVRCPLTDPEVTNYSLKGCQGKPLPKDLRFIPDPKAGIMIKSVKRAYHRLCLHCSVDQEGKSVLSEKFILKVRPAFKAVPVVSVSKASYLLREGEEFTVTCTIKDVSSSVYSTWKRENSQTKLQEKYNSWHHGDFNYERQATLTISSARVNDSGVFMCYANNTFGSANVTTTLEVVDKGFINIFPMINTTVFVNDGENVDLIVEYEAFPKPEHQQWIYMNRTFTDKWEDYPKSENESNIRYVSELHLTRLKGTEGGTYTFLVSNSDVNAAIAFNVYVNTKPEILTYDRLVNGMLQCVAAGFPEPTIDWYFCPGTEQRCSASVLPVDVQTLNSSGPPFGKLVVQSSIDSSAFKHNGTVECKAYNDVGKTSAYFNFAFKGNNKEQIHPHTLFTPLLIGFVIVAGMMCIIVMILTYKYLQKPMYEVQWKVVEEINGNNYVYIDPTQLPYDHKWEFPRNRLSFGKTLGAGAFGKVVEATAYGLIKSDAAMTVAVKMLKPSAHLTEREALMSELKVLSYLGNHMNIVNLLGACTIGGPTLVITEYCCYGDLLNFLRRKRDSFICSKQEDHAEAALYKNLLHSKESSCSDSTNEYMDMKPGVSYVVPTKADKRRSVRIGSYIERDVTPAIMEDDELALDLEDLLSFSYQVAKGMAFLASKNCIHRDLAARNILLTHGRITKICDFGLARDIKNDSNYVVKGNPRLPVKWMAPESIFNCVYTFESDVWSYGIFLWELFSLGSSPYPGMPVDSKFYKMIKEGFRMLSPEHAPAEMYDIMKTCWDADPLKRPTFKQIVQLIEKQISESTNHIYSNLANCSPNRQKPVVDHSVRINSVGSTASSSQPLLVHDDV

LTK (human) = LTK (human) (UniProt P29376)
MAP3K11 (human) = MAP3K11 (human) (UniProt Q16584)
MAP3K15 (human) = MAP3K15 (human) (UniProt Q6ZN16)
MUSK (human) = MUSK (human) (UniProt O15146)
Sequence of MUSK (human) (O15146 whole entry, looked up): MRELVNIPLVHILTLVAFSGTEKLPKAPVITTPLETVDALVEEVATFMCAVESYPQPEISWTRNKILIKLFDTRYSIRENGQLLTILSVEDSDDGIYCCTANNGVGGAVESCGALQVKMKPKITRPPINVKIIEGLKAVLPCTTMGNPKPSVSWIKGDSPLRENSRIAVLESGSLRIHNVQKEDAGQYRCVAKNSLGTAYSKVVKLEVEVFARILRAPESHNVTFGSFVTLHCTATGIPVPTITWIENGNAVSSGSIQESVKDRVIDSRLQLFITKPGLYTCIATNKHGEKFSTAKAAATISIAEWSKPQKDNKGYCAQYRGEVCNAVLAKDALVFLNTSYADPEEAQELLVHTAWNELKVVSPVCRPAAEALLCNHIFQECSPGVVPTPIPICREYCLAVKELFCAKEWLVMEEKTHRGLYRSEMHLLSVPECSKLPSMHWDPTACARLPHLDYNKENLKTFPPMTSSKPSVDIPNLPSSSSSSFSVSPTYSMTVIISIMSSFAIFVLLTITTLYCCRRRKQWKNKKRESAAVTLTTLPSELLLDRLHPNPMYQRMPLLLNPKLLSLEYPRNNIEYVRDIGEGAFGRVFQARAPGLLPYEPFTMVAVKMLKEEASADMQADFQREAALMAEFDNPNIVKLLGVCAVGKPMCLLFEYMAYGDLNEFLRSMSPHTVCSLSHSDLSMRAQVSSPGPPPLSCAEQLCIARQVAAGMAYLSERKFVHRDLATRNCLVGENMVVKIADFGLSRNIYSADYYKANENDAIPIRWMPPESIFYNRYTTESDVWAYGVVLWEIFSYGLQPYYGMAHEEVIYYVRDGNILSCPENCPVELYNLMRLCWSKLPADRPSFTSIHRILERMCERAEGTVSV

MYLK (human) = MYLK (human) (UniProt Q15746)
MYO3A (human) = MYO3A (human) (UniProt Q8NEV4)
PAK2 (human) = PAK2 (human) (UniProt Q13177)
PIK3C2B (human) = PIK3C2B (human) (UniProt O00750)
PKMYT1 (human) = PKMYT1 (human) (UniProt Q99640)
PLK3 (human) = PLK3 (human) (UniProt Q9H4B4)
RET (human) = RET (human) (UniProt P07949)
RIPK1 (human) = RIPK1 (human) (UniProt Q13546)
Sequence of RIPK1 (human) (Q13546 whole entry, looked up): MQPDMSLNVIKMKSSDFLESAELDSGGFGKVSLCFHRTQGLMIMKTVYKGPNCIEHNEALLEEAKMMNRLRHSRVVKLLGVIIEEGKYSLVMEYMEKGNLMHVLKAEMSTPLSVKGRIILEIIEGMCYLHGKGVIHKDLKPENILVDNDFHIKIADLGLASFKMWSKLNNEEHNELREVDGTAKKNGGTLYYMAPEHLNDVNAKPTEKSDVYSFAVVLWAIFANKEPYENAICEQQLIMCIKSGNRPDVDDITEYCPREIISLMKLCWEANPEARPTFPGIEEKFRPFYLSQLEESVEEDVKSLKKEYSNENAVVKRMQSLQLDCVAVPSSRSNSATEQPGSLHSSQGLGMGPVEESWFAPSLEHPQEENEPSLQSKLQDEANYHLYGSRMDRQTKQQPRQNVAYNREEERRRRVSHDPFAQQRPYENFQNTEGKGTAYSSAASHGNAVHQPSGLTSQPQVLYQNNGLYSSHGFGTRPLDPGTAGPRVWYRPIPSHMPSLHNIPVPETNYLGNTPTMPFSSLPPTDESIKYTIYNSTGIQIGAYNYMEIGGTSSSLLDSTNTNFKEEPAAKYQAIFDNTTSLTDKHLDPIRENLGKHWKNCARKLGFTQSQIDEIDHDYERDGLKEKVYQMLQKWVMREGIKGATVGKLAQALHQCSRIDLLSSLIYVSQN

RPS6KA1 KD2 (human) = RPS6KA1 KD2 (human) (UniProt Q15418)
SIK3 (human) = SIK3 (human) (UniProt Q9Y2K2)
SRPK2 (human) = SRPK2 (human) (UniProt P78362)
STK24 (human) = STK24 (human) (UniProt Q9Y6E0)
STK35 (human) = STK35 (human) (UniProt Q8TDR2)
Sequence of STK35 (human) (Q8TDR2 whole entry, looked up): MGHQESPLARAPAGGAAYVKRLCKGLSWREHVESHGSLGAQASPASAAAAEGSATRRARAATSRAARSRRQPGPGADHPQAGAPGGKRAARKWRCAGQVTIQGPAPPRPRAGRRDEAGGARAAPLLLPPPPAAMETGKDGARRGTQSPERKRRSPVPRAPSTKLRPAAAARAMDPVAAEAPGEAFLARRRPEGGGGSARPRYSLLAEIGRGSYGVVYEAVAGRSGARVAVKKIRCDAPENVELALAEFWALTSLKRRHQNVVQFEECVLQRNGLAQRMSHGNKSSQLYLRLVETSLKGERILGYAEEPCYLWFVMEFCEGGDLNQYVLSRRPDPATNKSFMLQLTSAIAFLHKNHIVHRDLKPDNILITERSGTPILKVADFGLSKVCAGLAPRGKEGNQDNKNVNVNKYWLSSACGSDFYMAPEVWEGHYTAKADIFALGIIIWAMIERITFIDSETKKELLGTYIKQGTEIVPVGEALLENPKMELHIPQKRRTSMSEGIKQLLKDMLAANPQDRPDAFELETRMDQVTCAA

SYK (human) = SYK (human) (UniProt P43405)
TBK1 (human) = TBK1 (human) (UniProt Q9UHD2)
TGFBR2 (human) = TGFBR2 (human) (UniProt P37173)
TSSK1B (human) = TSSK1B (human) (UniProt Q9BXA7)

Sequence of CDKL3 (human) (Q8IVW4 whole entry, looked up): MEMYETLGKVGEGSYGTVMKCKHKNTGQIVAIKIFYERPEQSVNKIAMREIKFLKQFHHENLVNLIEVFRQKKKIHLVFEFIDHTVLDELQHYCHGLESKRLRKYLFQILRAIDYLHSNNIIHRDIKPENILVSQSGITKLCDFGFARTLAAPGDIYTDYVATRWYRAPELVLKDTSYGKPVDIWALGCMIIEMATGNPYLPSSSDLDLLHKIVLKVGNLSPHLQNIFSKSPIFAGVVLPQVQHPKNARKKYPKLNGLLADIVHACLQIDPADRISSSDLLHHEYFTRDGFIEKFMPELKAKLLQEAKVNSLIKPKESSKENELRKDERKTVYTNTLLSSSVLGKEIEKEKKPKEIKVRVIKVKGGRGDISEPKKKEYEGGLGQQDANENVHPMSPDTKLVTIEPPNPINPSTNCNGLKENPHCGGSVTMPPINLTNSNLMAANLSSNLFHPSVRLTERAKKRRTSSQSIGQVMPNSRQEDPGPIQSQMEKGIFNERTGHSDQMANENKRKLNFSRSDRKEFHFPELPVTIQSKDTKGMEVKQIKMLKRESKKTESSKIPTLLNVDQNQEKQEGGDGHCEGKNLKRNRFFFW

SMILES	kinase still bound, per cent of control (AURKA (human))	kinase still bound, per cent of control (CDK13 (human))	kinase still bound, per cent of control (CDK17 (human))	kinase still bound, per cent of control (CDK19 (human))	kinase still bound, per cent of control (CDK5 (human))	kinase still bound, per cent of control (CDKL3 (human))	kinase still bound, per cent of control (CHEK1 (human))	kinase still bound, per cent of control (CLK4 (human))	kinase still bound, per cent of control (CRK2 (P.falciparum))	kinase still bound, per cent of control (CaMK1 (human))	kinase still bound, per cent of control (EPHA1 (human))	kinase still bound, per cent of control (EPHA7 (human))	kinase still bound, per cent of control (FLT1 (human))	kinase still bound, per cent of control (FLT4 (human))	kinase still bound, per cent of control (GRK4 (human))	kinase still bound, per cent of control (HCK (human))	kinase still bound, per cent of control (HIPK1 (human))	kinase still bound, per cent of control (HIPK2 (human))	kinase still bound, per cent of control [1]	kinase still bound, per cent of control (LTK (human))	further results
CCc1nc(-c2cccc(C)c2)c(-c2ccnc(NC(=O)c3ccccc3)c2)s1	90%	100%	99%	91%	100%	81%	77%	93%	100%	85%	56%	92%	31%	27%	100%	31%	94%	100%	100%	26%	kinase still bound, per cent of control (MAP3K11 (human)): 70%; kinase still bound, per cent of control (MAP3K15 (human)): 100%; kinase still bound, per cent of control (MUSK (human)): 100%; kinase still bound, per cent of control (MYLK (human)): 84%; kinase still bound, per cent of control (MYO3A (human)): 60%; kinase still bound, per cent of control (PAK2 (human)): 85%; kinase still bound, per cent of control (PIK3C2B (human)): 100%; kinase still bound, per cent of control (PKMYT1 (human)): 64%; kinase still bound, per cent of control (PLK3 (human)): 98%; kinase still bound, per cent of control (RET (human)): 66%; kinase still bound, per cent of control (RIPK1 (human)): 95%; kinase still bound, per cent of control (RPS6KA1 KD2 (human)): 28%; kinase still bound, per cent of control (SIK3 (human)): 94%; kinase still bound, per cent of control (SRPK2 (human)): 73%; kinase still bound, per cent of control (STK24 (human)): 69%; kinase still bound, per cent of control (STK35 (human)): 76%; kinase still bound, per cent of control (SYK (human)): 88%; kinase still bound, per cent of control (TBK1 (human)): 100%; kinase still bound, per cent of control (TGFBR2 (human)): 82%; kinase still bound, per cent of control (TSSK1B (human)): 87%
CCN1CCN(Cc2ccc(NC(=O)c3ccc(C)c(/C=C/c4cnc5[nH]ccc5c4OC)c3)cc2C(F)(F)F)CC1	97%	100%	61%	4.2%	100%	4%	28%	100%	93%	30%	2%	16%	2.4%	0.2%	8.2%	0.45%	74%	41%	64%	62%	kinase still bound, per cent of control (MAP3K11 (human)): 3.6%; kinase still bound, per cent of control (MAP3K15 (human)): 100%; kinase still bound, per cent of control (MUSK (human)): 0%; kinase still bound, per cent of control (MYLK (human)): 90%; kinase still bound, per cent of control (MYO3A (human)): 28%; kinase still bound, per cent of control (PAK2 (human)): 100%; kinase still bound, per cent of control (PIK3C2B (human)): 100%; kinase still bound, per cent of control (PKMYT1 (human)): 71%; kinase still bound, per cent of control (PLK3 (human)): 83%; kinase still bound, per cent of control (RET (human)): 0.1%; kinase still bound, per cent of control (RIPK1 (human)): 0.15%; kinase still bound, per cent of control (RPS6KA1 KD2 (human)): 20%; kinase still bound, per cent of control (SIK3 (human)): 100%; kinase still bound, per cent of control (SRPK2 (human)): 28%; kinase still bound, per cent of control (STK24 (human)): 20%; kinase still bound, per cent of control (STK35 (human)): 23%; kinase still bound, per cent of control (SYK (human)): 7.2%; kinase still bound, per cent of control (TBK1 (human)): 55%; kinase still bound, per cent of control (TGFBR2 (human)): 5.7%; kinase still bound, per cent of control (TSSK1B (human)): 100%
